Here are results for ten molecules from patent publication US5834493A, “Indole derivatives as 5-HT1A and/or 5-HT2 ligands” (priority 1993, dated 1998).

In one assay the target is T1, 5-HT1A receptors (Rattus norvegicus, UniProt P19327).
T1 construct: The Hippocampi of these animals were homogeneized in 10 volumes of ice cold TRIS buffer; from tissue; host or cells: rat hippocampus (male Sprague Dawley), homogenate
T1 sequence (P19327 1-422): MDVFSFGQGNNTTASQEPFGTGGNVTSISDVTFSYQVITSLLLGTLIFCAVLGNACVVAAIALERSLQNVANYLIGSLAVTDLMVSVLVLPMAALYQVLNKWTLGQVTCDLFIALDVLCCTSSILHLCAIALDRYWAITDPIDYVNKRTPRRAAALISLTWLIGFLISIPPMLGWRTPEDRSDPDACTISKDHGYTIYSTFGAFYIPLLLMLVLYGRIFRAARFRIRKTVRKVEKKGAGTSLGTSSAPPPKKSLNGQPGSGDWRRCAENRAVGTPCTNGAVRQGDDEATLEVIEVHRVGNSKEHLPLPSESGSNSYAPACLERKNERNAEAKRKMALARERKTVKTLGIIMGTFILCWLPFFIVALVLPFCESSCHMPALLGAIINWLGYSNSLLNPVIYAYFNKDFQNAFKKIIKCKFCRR
Description: 5-HT1A receptor binding ([3H]-8-OH-DPAT displacement, rat hippocampus homogenate). Also on record: species or system rat (male Sprague Dawley). The settings on record: [3H]-8-OH-DPAT 1.0-1.5 nM, 30° C., 15 min, pH 7.4, read-out: Affinity for 5-HT1A receptors, Ki. As for the experimental part:
(§1) Receptor binding studies on 5-HT1A and 5-HT2 receptors were carried out to determine the affinity of the test compounds.
Rats (male Sprague Dawley, 200-250 g) were used. The Hippocampi of these animals were homogeneized in 10 volumes of ice cold TRIS buffer (pH 7.4). The homogenate was diluted 1:400 (w:v) in the same buffer to have a final protein concentration of about 200 μg/mL, filtered and incubated at 37° C. for 10 min, before use.
Displacement experiments were performed by incubating the homogenate (980 μL) in the presence of [^3 H]-8OH-DPAT (1.0-1.5 nM) (10 μL) and of different concentrations of the test compounds dissolved in the test buffer (10 μL), at 30° C. for 15 min (final volume: 1 mL).
Non specific binding was determined in the presence of 100 μM 5-HT (10 μL). The separation of [3H]-8-OH-DPAT, free from that bound to the receptor, was carried out by the filtration technique (GF/B filters, Whatman). The radioactivity present was counted by liquid scintillation spectrometry.
The affinity values (Ki) for the compounds were obtained by a non linear least squares regression analysis on the basis of a one binding site model. The values were corrected on the basis of the radioligand occupancy on the receptors according to the equation: Ki=IC50 /(1+[C]/KD),where [C] and KD represent the concentration and the dissociation constant, respectively, of the radioligand used ([^3 H]-8-OH-DPAT).

Another assay concerns the target T2, 5-HT2 receptors (Rattus norvegicus, UniProt P14842).
T2 construct: Cerebral cortices were homogenized in 10 volumes of ice cold 0.32M sucrose; from tissue; host or cells: rat cerebral cortex (male Sprague Dawley), membrane preparation
Briefly: 5-HT2 receptor binding ([3H]-Ketanserine displacement, rat cerebral cortex). Also on record: species or system rat (male Sprague Dawley). As to conditions: [3H]-Ketanserine 0.5-1.0 nM, 37° C., 10 min, pH 7.4, read-out: Affinity for 5-HT2 receptors, Ki. As for the experimental part:
as §1
Rats (male Sprague Dawley, 200-250 g) were used. Cerebral cortices were homogenized in 10 volumes of ice cold 0.32M sucrose. After the centrifugation of the homogenate (1,000×g for 10 min) the supernatant was then recentrifuged at 48,000×g for 15 min. The resulting pellet was resuspended in 10 volumes of 50 mM TRIS buffer (pH 7.4), incubated at 37° C. for 10 min and recentrifuged at 48,000×g for 15 min. The residue was then resuspended in 10 volumes of 50 mM TRIS buffer (pH 7.4).
The tissue was diluted 1:100 (w:v) in 50 mM TRIS buffer (pH 7.4) to have a final protein concentration of about 200 μg/mL.
Displacement experiments were performed by incubating the homogenate (980 μL) in the presence of [^3 H]-Ketanserine (0.5-1.0 nM) (10 μL) and of different concentrations of the test compounds dissolved in the assay buffer (10 μL), at 37° C. for 10 min (final volume: 1 mL).
Non specific binding was determined in the presence of 100 μM Methysergide (10 μL). The separation of [^3 ]-Ketanserine free from that bound to the receptor was carried by the filtration technique (GF/B filters, Whatman). The radioactivity present was counted by liquid scintillation spectrometry.
The affinity values (Ki) for the compounds were obtained by non linear least squares regression analysis on the basis of a one binding site model. These values were corrected on the basis of the radioligand occupancy on the receptors according to the equation: Ki=IC50 /(1+[C]/KD), where [C] and KD represent the concentration and the dissociation constant, respectively, of the radioligand used ([^3 H]-Ketanserine).

T2 sequence (P14842 whole entry): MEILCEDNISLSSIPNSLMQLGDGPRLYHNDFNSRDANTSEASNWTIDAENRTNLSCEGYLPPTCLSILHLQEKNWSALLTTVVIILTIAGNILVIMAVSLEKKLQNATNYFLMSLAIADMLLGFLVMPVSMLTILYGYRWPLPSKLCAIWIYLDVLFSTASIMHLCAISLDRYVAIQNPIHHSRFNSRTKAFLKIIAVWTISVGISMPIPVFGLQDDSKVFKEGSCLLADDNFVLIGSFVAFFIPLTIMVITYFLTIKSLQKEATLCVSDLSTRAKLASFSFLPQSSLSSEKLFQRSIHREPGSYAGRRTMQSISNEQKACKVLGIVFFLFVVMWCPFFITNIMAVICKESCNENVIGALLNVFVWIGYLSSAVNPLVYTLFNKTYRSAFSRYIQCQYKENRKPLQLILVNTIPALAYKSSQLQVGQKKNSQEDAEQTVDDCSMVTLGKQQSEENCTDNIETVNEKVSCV

For the molecule `COc1ccc2[nH]cc(CC3=CCCN(CCNC(=O)c4cccs4)C3)c2c1` [Compound 17, 5-methoxy-3-[N-(2-(2-thiophene-carboxamide)-ethyl)-1,2,5,6-tetrahydro-pyridin-3-ylmethyl]-1H-indole], the Ki at 5-HT1A receptors turned out to be 1 nM.
`COc1ccc2[nH]cc(CC3=CCCN(CCCCc4ccc(F)cc4)C3)c2c1` [Compound 14, 5-methoxy-3-[N-(4-(4-fluoro-phenyl)-butyl)-1,2,5,6-tetrahydro-pyridin-3-ylmethyl]-1H-indole]: the Ki was found to be 80 nM at 5-HT1A receptors and 100 nM at 5-HT2 receptors.
Regarding `COc1ccc2[nH]cc(CC3=CCCN(CCNC(=O)c4ccc(F)cc4)C3)c2c1` [Compound 16], the Ki at 5-HT1A receptors came out at 1 nM.
`COc1ccc2[nH]cc(CC3=CCCN(CCCC(=O)c4cccs4)C3)c2c1` [Compound 32, 5-methoxy-3-[N-(4-(2-thienyl)-4-oxo-butyl)-1,2,5,6-tetrahydro-pyridin-3-ylmethyl]-1H-indole]: the Ki on 5-HT1A receptors came out at 30 nM; on 5-HT2 receptors, 10 nM.
`COc1ccc2[nH]cc(CC3=CCCN(CCc4ccc(N)cc4)C3)c2c1` [Compound 13, 5-methoxy-3-[N-(2-(4-amino-phenyl)-ethyl)-1,2,5,6-tetrahydro-pyridin-3-ylmethyl]-1H-indole]: the inhibition constant Ki at 5-HT1A receptors came to 100 nM; at 5-HT2 receptors, 50 nM.
In the case of `COc1ccc2[nH]cc(CC3=CCCN(CCCc4ccc(F)cc4)C3)c2c1` [Compound 15, 5-methoxy-3-[N-(3-(4-fluoro-phenyl)-propyl)-1,2,5,6-tetrahydro-pyridin-3-ylmethyl]-1H-indole], the Ki on 5-HT1A receptors and on 5-HT2 receptors was 10 nM each time.
Turning to `COc1ccc2[nH]cc(CC3=CCCN(CCOc4ccc(F)cc4)C3)c2c1` [Compound 2, 5-methoxy-3-[N-(4'-fluoro-phenoxy-ethyl)-1,2,5,6-tetrahydro-pyridin-3-yl-methyl]-1H-indole], the Ki on 5-HT1A receptors came to 10 nM; on 5-HT2 receptors, 50 nM.
On the same counts, the results for `COc1ccc2[nH]cc(CC3=CCCN(CCCC(=O)c4ccc(F)cc4)C3)c2c1` [Compound 9, 5-methoxy-3-[N-(4-(4-fluoro-phenyl)-4-oxo-butyl)-1,2,5,6-tetrahydro-pyridin-3-ylmethyl]-1H-indole] are 30 nM and 15 nM.
Regarding `COc1ccc2[nH]cc(CC3=CCCN(CCC(=O)c4ccc(F)cc4)C3)c2c1` [Compound 11, 5-methoxy-3-[N-(3-(4-fluoro-phenyl)-3-oxo-propyl)-1,2,5,6-tetrahydro-pyridin-3-ylmethyl]-1H-indole], the Ki on 5-HT1A receptors amounted to 30 nM; on 5-HT2 receptors, 20 nM.
For `COc1ccc2[nH]cc(CC3=CCCN(C)C3)c2c1` [Compound 1, 5-methoxy-3-(N-methyl-1,2,5,6-tetrahydro-pyridin-3-yl-methyl)-1H-indole], the Ki at 5-HT1A receptors worked out at 35 nM.

As a reminder, the Ki is a dissociation constant, usually derived from enzyme kinetics or from competition with a known ligand.
